# Assay results reported in US20170050957A1, “4-AMINO-6-(HETEROCYCLIC)PICOLINATES AND 6-AMINO-2-(HETEROCYCLIC)PYRIMIDINE-4-CARBOXYLATES AND THEIR USE AS HERBICIDES” (Dow AgroSciences LLC, priority 2013, published 2017).
# Read-outs that look alike come from different tables or passages of the source.
# Experiments:
# [1] = tested on: Key Grass and Sedge Weeds as well as Grass Crops; assay: Post-emergent Test II herbicidal activity (Table 16); format: in vivo; conditions: post-emergence, 336 h; for pest or weed control at 35 g/ha: 35 g ai/ha, 14 d; for pest or weed control at 70 g/ha: 70 g ai/ha; for pest or weed control at 70 g/ha / pest or weed control at 140 g/ha: 14 days after application; for pest or weed control at 140 g/ha: 140 g ai/ha
# How it was run: (§1)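 Plants at first-second true leaf stage, grown 7-21 d in greenhouse (~15 h photoperiod, 23-29 °C day), were track-sprayed at 187 L/ha with compound in acetone/DMSO/water/isopropanol/crop oil/Triton X-155 at a high rate plus 1/2× to 1/16× dilutions. Injury scored visually after 14 d versus untreated plants, 0 (none) to 100% (complete kill).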
# [2] = tested on: Key Broadleaf Weed and Crop Species; assay: Post-emergent Test II herbicidal activity (Table 15); format: in vivo; conditions: post-emergence, 336 h, 14 d; for pest or weed control at 35 g/ha: 35 g ai/ha; for pest or weed control at 70 g/ha: 70 g ai/ha; for pest or weed control at 140 g/ha: 140 g ai/ha
# How it was run: as §1
# [3] = Cyperus esculentus, yellow nutsedge (Cyperus esculentus), read-out: Visual Growth Reduction (%) 14 Days After Application CYPES
# [4] = Echinochloa crus-galli, barnyardgrass (Echinochloa crus-galli), read-out: Visual Growth Reduction (%) 14 Days After Application ECHCG
# [5] = Oryza sativa, rice (Oryza sativa), read-out: Visual Growth Reduction (%) 14 Days After Application ORYSA
# [6] = Setaria faberi, giant foxtail (Setaria faberi), read-out: Visual Growth Reduction (%) 14 Days After Application SETFA
# [7] = Triticum aestivum, wheat, spring (Triticum aestivum), read-out: Visual Growth Reduction (%) 14 Days After Application TRZAS
# [8] = Zea mays, maize, corn (Zea mays), read-out: Visual Growth Reduction (%) 14 Days After Application ZEAMX
# [9] = Abutilon theophrasti, velvetleaf (Abutilon theophrasti), read-out: Visual Growth Reduction (%) 14 Days After Application, ABUTH
# [10] = Amaranthus retroflexus, redroot pigweed (Amaranthus retroflexus), read-out: Visual Growth Reduction (%) 14 Days After Application, AMARE
# [11] = Brassica napus, oilseed rape, canola (Brassica napus), read-out: Visual Growth Reduction (%) 14 Days After Application, BRSNN
# [12] = Chenopodium album, lambsquarters (Chenopodium album), read-out: Visual Growth Reduction (%) 14 Days After Application, CHEAL
# [13] = Euphorbia heterophylla, wild poinsettia (Euphorbia heterophylla), read-out: Visual Growth Reduction (%) 14 Days After Application, EPHHL
# [14] = Helianthus annuus, sunflower (Helianthus annuus), read-out: Visual Growth Reduction (%) 14 Days After Application, HELAN
structure (smiles),measurement,setting,value
Cc1c(-c2ccc3sccc3c2)nc(C(=O)O)c(Cl)c1N [Compound 3.07],pest or weed control at 35 g/ha,"[1]; Cyperus esculentus, yellow nutsedge (Cyperus esculentus), read-out: Visual Growth Reduction (%) 14 Days After Application, CYPES",0 to 29%
same,pest or weed control at 70 g/ha,[1]; [3],0 to 29%
same,pest or weed control at 140 g/ha,[1]; [3],0 to 29%
same,pest or weed control at 35 g/ha,"[1]; Echinochloa crus-galli, barnyardgrass (Echinochloa crus-galli), read-out: Visual Growth Reduction (%) 14 Days After Application, ECHCG",0 to 29%
same,pest or weed control at 70 g/ha,[1]; [4],0 to 29%
same,pest or weed control at 140 g/ha,[1]; [4],0 to 29%
same,pest or weed control at 35 g/ha,"[1]; Oryza sativa, rice (Oryza sativa), read-out: Visual Growth Reduction (%) 14 Days After Application, ORYSA",0 to 29%
same,pest or weed control at 70 g/ha,[1]; [5],0 to 29%
same,pest or weed control at 140 g/ha,[1]; [5],0 to 29%
same,pest or weed control at 35 g/ha,"[1]; Setaria faberi, giant foxtail (Setaria faberi), read-out: Visual Growth Reduction (%) 14 Days After Application, SETFA",0 to 29%
same,pest or weed control at 70 g/ha,[1]; [6],0 to 29%
same,pest or weed control at 140 g/ha,[1]; [6],0 to 29%
same,pest or weed control at 35 g/ha,"[1]; Triticum aestivum, wheat, spring (Triticum aestivum), read-out: Visual Growth Reduction (%) 14 Days After Application, TRZAS",0 to 29%
same,pest or weed control at 70 g/ha,[1]; [7],0 to 29%
same,pest or weed control at 140 g/ha,[1]; [7],0 to 29%
same,pest or weed control at 35 g/ha,"[1]; Zea mays, maize, corn (Zea mays), read-out: Visual Growth Reduction (%) 14 Days After Application, ZEAMX",0 to 29%
same,pest or weed control at 70 g/ha,[1]; [8],0 to 29%
same,pest or weed control at 140 g/ha,[1]; [8],0 to 29%
same,pest or weed control at 35 g/ha,[2]; [9],0 to 29%
same,pest or weed control at 70 g/ha,[2]; [9],0 to 29%
same,pest or weed control at 140 g/ha,[2]; [9],0 to 29%
same,pest or weed control at 35 g/ha,[2]; [10],0 to 29%
same,pest or weed control at 70 g/ha,[2]; [10],60 to 74%
same,pest or weed control at 140 g/ha,[2]; [10],75 to 84%
same,pest or weed control at 35 g/ha,[2]; [11],45 to 59%
same,pest or weed control at 70 g/ha,[2]; [11],60 to 74%
same,pest or weed control at 140 g/ha,[2]; [11],60 to 74%
same,pest or weed control at 35 g/ha,[2]; [12],0 to 29%
same,pest or weed control at 70 g/ha,[2]; [12],0 to 29%
same,pest or weed control at 140 g/ha,[2]; [12],75 to 84%
same,pest or weed control at 35 g/ha,[2]; [13],0 to 29%
same,pest or weed control at 70 g/ha,[2]; [13],0 to 29%
same,pest or weed control at 140 g/ha,[2]; [13],0 to 29%
same,pest or weed control at 35 g/ha,[2]; [14],85 to 94%
same,pest or weed control at 70 g/ha,[2]; [14],85 to 94%
same,pest or weed control at 140 g/ha,[2]; [14],85 to 94%
same,melting point,,159 to 165 °C
